This is an account of results in PubChem BioAssay (NCI).

Common to all, as to test: NCI-60 cell line screen, 48 h
Experiment [1] has as its system HOP-92 NSCLC.
For experiment [2], the system named is SK-OV-3 ovarian.
For experiment [3], the system named is HCT-15 colon.
The test system of experiment [4] is HOP-62 NSCLC.
For experiment [5], the system named is SF-539 CNS.
In experiment [6] the test system is SF-268 CNS.
The subject of experiment [7] is OVCAR-5 ovarian.
The test system of experiment [8] is HL-60(TB) leukemia.
The subject of experiment [9] is SN12C renal.
The subject of experiment [10] is A498 renal.

Several values for one entry are separate records, joined by “and”; a condition that tells them apart may be missing. Equal values may be shown once.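 Each compound was tested at five concentrations against cells in 96-well plates for 48 hours. GI50 marks 50% less growth. TGI: total growth inhibition.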 Where a SMILES comes first, the peptide text is derived from it. [ ]: non-standard residue; d: D form. Orn = NCCC[CH](N)C(=O)O

On to `CC(C)CC1NC(=O)C(CCCN)NC(=O)C(C(C)C)NC(=O)C2CCCN2C(=O)C(Cc2ccccc2)NC(=O)C(CC(C)C)NC(=O)C(CCCN)NC(=O)C(C(C)C)NC(=O)C2CCCN2C(=O)C(Cc2ccccc2)NC1=O` (stereo not drawn) (cyclo(FPV[Orn]LFPV[Orn]L); configuration not given here), for which the GI50 was 6.61 nM and 12.6 nM in [1]; 10.8 nM in experiment [2]; 213 nM and 436 nM in experiment [3]; 5.95 nM in [4]; 14.6 nM and 47.7 nM in experiment [5]; 16.8 nM and 59.4 nM in experiment [6]. Moreover, the GI50 was 11.7 nM in experiment [7]; 15.1 nM and 37.1 nM in experiment [8]; 11.1 nM and 28.8 nM in experiment [9]; 92 nM and 106 nM in experiment [10]. The TGI in [1] was 0.0204 µM and 0.0545 µM; in experiment [2], 0.505 µM and 1.39 µM; in [3], 4.06 µM and 4.7 µM; in [4], 0.418 µM and 1.31 µM; in [5], 0.421 µM and 1.05 µM; in experiment [6] it was 0.565 µM and 1.66 µM. Also, the TGI is 0.968 µM and 1.98 µM in [7]; 0.104 µM and 0.251 µM in experiment [8]; 0.419 µM and 1.13 µM in experiment [9]; 0.743 µM and 0.632 µM in experiment [10].

On to `O=C(O)c1cn(C2CC2)c2cc(N3CCN(C(=O)Nc4nc(-c5ccc(Cl)cc5)cs4)CC3)c(F)cc2c1=O`, for which the GI50 in experiment [1] was 1850 nM; in [2] it was 2350 nM; in experiment [3] it was 1710 nM; in experiment [4], 3000 nM; in [5], 775 nM; in [6] it was 828 nM. Moreover, the GI50 in experiment [7] was 3400 nM; in [8], 1470 nM; in experiment [9], 3530 nM; in [10], 1470 nM. For the same compound, the TGI in experiment [1] is 7.63 µM; in experiment [2], 8.12 µM; in [3], > 100 µM; in experiment [4] it was 96.1 µM; in experiment [5] it was > 100 µM; in [6], > 100 µM. The TGI in [7] is > 100 µM; in experiment [8], 4.76 µM; in [9] it was > 100 µM; in experiment [10], 9.46 µM.

As for `C#CCOc1c(OC)cc(C(=O)/C(C)=C/c2cccc(N=[N+]=[N-])c2)cc1OC`, the GI50 was 196 nM in [1]; 674 nM in experiment [2]; 49.9 nM in experiment [3]; 214 nM in experiment [4]; 130 nM in experiment [5]; 637 nM in experiment [6]. Moreover, the GI50 in experiment [7] was 1230 nM; in experiment [8], 41.1 nM; in experiment [9], 677 nM; in experiment [10], 151 nM. Besides, the TGI in [1] is 9.11 µM; in [2] it was > 100 µM; in experiment [3], > 100 µM; in [4], > 100 µM; in experiment [5], 0.478 µM; in [6], > 100 µM. The TGI in experiment [7] is > 100 µM; in experiment [8] it was 0.481 µM; in [9] it was > 100 µM; in experiment [10], 0.714 µM.

For the compound `O=C1C=CC(=O)N1CCCCCCCCCCN1C(=O)C=CC1=O`, the GI50 in experiment [1] is 20800 nM; in [2], > 100000 nM; in experiment [3], 10300 nM; in experiment [4] it was 16200 nM; in experiment [5] it was 16400 nM; in experiment [6], 15800 nM. In addition, the GI50 was 17400 nM in experiment [7], 8720 nM in [8], 15100 nM in [9] and 20000 nM in experiment [10]. Moreover, the TGI was 37 µM in experiment [1]; > 100 µM in experiment [2]; 25.7 µM in experiment [3]; 31.3 µM in experiment [4]; 30.6 µM in experiment [5]; 30.4 µM in experiment [6]. The TGI in [7] turned out to be 31.6 µM; in experiment [8] it was 31.4 µM; in experiment [9] it was 29.5 µM; in experiment [10] it was 49.7 µM.

As to `N#Cc1ccccc1/C=N/O`, the TGI in [1] is > 100 µM; in experiment [2], > 100 µM; in [3] it was > 56.3 µM; in experiment [4] it was > 100 µM; in experiment [5], > 100 µM; in experiment [6] it was > 100 µM. Moreover, the TGI is > 100 µM in experiment [7], > 62.2 µM in experiment [8], > 100 µM in [9] and > 100 µM in [10].

Regarding `O=[N+]([O-])c1ccc(C2N3CCCCC3[C@@H]3c4[nH]c5ccccc5c4CCN23)cc1` (stereo partly drawn), the TGI in experiment [1] is > 100 µM; in experiment [2], > 100 µM; in [3] it was 59.1 µM; in experiment [4], 47.9 µM; in experiment [5] it was 29.9 µM; in [6], 43 µM. Further, the TGI in experiment [7] was 56.5 µM; in experiment [8] it was > 100 µM; in experiment [9], 32.3 µM; in experiment [10], 36.5 µM.

Regarding `COc1ccc(-c2oncc2-c2cc(OC)c3c(c2)OCO3)cc1`, the GI50 was 2080 nM in experiment [1]; 3760 nM in experiment [2]; 1200 nM in experiment [3]; 3910 nM in experiment [4]; 2000 nM in [5]; 7380 nM in [6]. Moreover, the GI50 in experiment [7] is 5140 nM; in experiment [8], 2530 nM; in experiment [9] it was 5230 nM; in [10], 1490 nM. For the same compound, the TGI in experiment [1] is 28.6 µM; in [2] it was > 40.4 µM; in experiment [3], > 100 µM; in [4] it was > 71.1 µM; in [5], 5.92 µM; in [6], > 100 µM. The TGI in experiment [7] is > 100 µM; in [8] it was > 26.5 µM; in [9], > 100 µM; in experiment [10], 7.4 µM.

With `COc1ccc2oc(-c3ccc(Cl)cc3)c(N3CCN(C)CC3)c2c1`, the GI50 in [1] was 370 nM; in [2], 2170 nM; in experiment [3] it was 1620 nM; in [4], 1820 nM; in experiment [5] it was 1780 nM; in experiment [6] it was 2360 nM. The GI50 in experiment [7] was 1950 nM; in experiment [8], 2640 nM; in experiment [9], 2520 nM; in experiment [10] it was 1530 nM. For the same compound, the TGI came to 2.78 µM in experiment [1]; 4.99 µM in experiment [2]; 3.24 µM in [3]; 3.86 µM in experiment [4]; 3.37 µM in [5]; 5.61 µM in experiment [6]. In addition, the TGI in experiment [7] was 4.34 µM; in [8], > 20 µM; in experiment [9], 10.2 µM; in experiment [10], 3.15 µM.

Turning to `CC(=O)/C=C/c1ccc(N(C)Cc2ccc(C(C)(C)C)cc2)cc1`, the GI50 in experiment [1] is 129000 nM; in experiment [2] it was 217000 nM; in experiment [3], 89700 nM; in [4] it was 194000 nM; in experiment [5], 161000 nM; in experiment [6] it was 143000 nM. The GI50 in [7] was 195000 nM; in experiment [8], 69100 nM; in [9], 141000 nM; in [10], 124000 nM. In addition, the TGI in experiment [1] turned out to be 267 µM; in [2], 709 µM; in experiment [3], 327 µM; in [4], 550 µM; in experiment [5] it was 316 µM; in experiment [6], 332 µM. Besides, the TGI in [7] worked out at 490 µM; in experiment [8], 277 µM; in experiment [9], 300 µM; in experiment [10], 251 µM.

As to `CCN(CC)CCCC(C)Nc1ccnc2cc(Cl)c(SCc3ccccc3)cc12` (stereo not drawn), the GI50 in [1] was 1140 nM; in experiment [2] it was 1930 nM; in experiment [3], 417 nM; in [4], 1370 nM; in experiment [5] it was 626 nM; in [6], 1590 nM. Moreover, the GI50 in experiment [7] is 1730 nM; in [8], 1810 nM; in experiment [9], 1700 nM; in [10], 1220 nM. In addition, the TGI is 3.2 µM in [1]; 3.69 µM in [2]; 1.63 µM in [3]; 3.01 µM in experiment [4]; 2.04 µM in experiment [5]; 3.65 µM in [6]. Besides, the TGI in experiment [7] stood at 3.7 µM; in experiment [8], 4.23 µM; in experiment [9], 4.07 µM; in [10], 2.68 µM.

Turning to `CN(C)CCOc1cccc(NC2=C(Cl)C(=O)C(Nc3cccc(OCCN(C)C)c3)=C(Cl)C2=O)c1`, the GI50 in experiment [1] was 184 nM; in experiment [2], 11300 nM; in experiment [3], 350 nM; in [4], 2100 nM; in [5] it was 1620 nM; in experiment [6], 1700 nM. Further, the GI50 in experiment [7] is 1840 nM; in experiment [8] it was 751 nM; in [9] it was 427 nM; in experiment [10], 1640 nM. Besides, the TGI in experiment [1] came to 0.408 µM; in experiment [2] it was 23.4 µM; in experiment [3], 1.4 µM; in experiment [4] it was 4.22 µM; in experiment [5] it was 2.98 µM; in experiment [6], 3.48 µM. Moreover, the TGI came out at 3.4 µM in experiment [7], 2.61 µM in experiment [8], 0.886 µM in [9] and 3.26 µM in experiment [10].

As to `CSc1ccc2c(c1)C(=O)c1c-2n(CCCN=[N+]=[N-])c(=O)c2cc([N+](=O)[O-])ccc12`, the GI50 was 5240 nM in experiment [1]; 861 nM in experiment [2]; > 87100 nM in experiment [3]; 623 nM in experiment [4]; 1460 nM in experiment [5]; 1980 nM in [6]. The GI50 in experiment [7] was > 76600 nM; in [8] it was 1170 nM; in experiment [9], 1630 nM. Also, the TGI is > 100 µM in experiment [1]; > 30.5 µM in experiment [2]; > 100 µM in experiment [3]; 29 µM in experiment [4]; > 100 µM in experiment [5]; > 100 µM in experiment [6]. Moreover, the TGI in [7] is > 100 µM; in experiment [9] it was > 100 µM; in experiment [10] it was > 22.3 µM.
